Here are results for 9 compounds from ChEMBL document CHEMBL1201862, “PubChem BioAssay data set” (2004).

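Interpolation was linear, between the two tested concentrations surrounding the appropriate level; five concentrations were tested over 48 hours in 96-well plates. Abbreviation: GI50, concentration required for 50% inhibition of growth.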 Active and inactive are the calls of the source. Rule as the data show it: active = GI50 up to about 1.1 µM and inactive = higher.

Common to all, as to assay: NCI anticancer screen, dose series, 48 h
The subject of assay [1] is 786-0.
Assay [2] relates to COLO 205.
The subject of assay [3] is HCC 2998.
Assay [4] deals with HCT-15.
The test system of assay [5] is HOP-62.
Assay [6] concerns MDA-N.
Assay [7] deals with NCI-H460.
Assay [8] concerns NCI-H522.
The test system of assay [9] is OVCAR-3.
Assay [10] relates to OVCAR-5.
Assay [11] has as its system OVCAR-8.
The subject of assay [12] is SK-MEL-5.
Assay [13] deals with SN12C.
Assay [14] relates to SNB-75.
The subject of assay [15] is U-251.
The test system of assay [16] is UACC-257.
Assay [17] concerns UO-31.
The subject of assay [18] is A498.
Assay [19] concerns T47D.

Regarding `CC1(C)COC(c2ccc(C(=O)c3ccc(Cl)cc3)cc2)=N1`, the GI50 in [1] is > 100 µM (inactive); in assay [2], > 100 µM (inactive); in assay [3] it was > 100 µM (inactive); in assay [4] it was greater than 100 µM; in assay [5], > 100 µM (inactive); in [6], > 100 µM (inactive). The GI50 is > 100 µM (inactive) in [7]; > 100 µM (inactive) in assay [8]; > 100 µM (inactive) in [9]; > 100 µM (inactive) in assay [10]; 84.9 µM (inactive) in assay [11]; 7.23 µM (inactive) in assay [12]. Also, the GI50 is > 100 µM (inactive) in assay [13]; > 100 µM (inactive) in [14]; > 100 µM (inactive) in assay [15]; 10.7 µM (inactive) in assay [16]; 58.7 µM (inactive) in assay [17].
Take `Cc1cccc2c(=O)c3c(O)cc4c(c3n(C)c12)C=CC(C)(C)O4`: the GI50 in assay [1] is 71.8 µM (inactive); in assay [18], > 100 µM (inactive); in assay [2] it was 29 µM (inactive); in assay [3] it was > 100 µM (inactive); in assay [4], 18.7 µM; in assay [5], > 100 µM (inactive). The GI50 in assay [6] is 35.6 µM (inactive); in assay [7] it was 31.2 µM (inactive); in [8] it was > 100 µM (inactive); in assay [9], > 100 µM (inactive); in assay [10] it was 59.3 µM (inactive); in [11], > 100 µM (inactive). Also, the GI50 in assay [12] was 29.9 µM (inactive); in assay [13], > 100 µM (inactive); in assay [14], 97.5 µM (inactive); in [15], > 100 µM (inactive); in assay [16], 60.1 µM (inactive).
As for `COc1cc2c(cc1OCCCCCOc1cc3c(cc1OC)C(=O)N1CCC[C@H]1CN3)N=C[C@@H]1CCCN1C2=O`, the GI50 in [1] is 3.94 µM (inactive); in assay [2] it was 4.37 µM (inactive); in assay [4] it was 13.7 µM; in assay [5], 2.15 µM (inactive); in assay [7], 3.77 µM (inactive); in assay [8], 1.36 µM (inactive). Also, the GI50 in [9] was 12.6 µM (inactive); in assay [10], 16.9 µM (inactive); in assay [11], 2.58 µM (inactive); in [12], 2.79 µM (inactive); in [13], 0.509 µM (active); in assay [14] it was 15 µM (inactive). For the same compound, the GI50 in [19] was 3.5 µM (inactive); in assay [15] it was 1.49 µM (inactive); in assay [16] it was 12.3 µM (inactive); in [17], 12.3 µM (inactive).
Regarding `CCC(O)CCCCCCCCCCCCCCC(=O)O` (configuration not stated), the GI50 was 84.9 µM (inactive) in [1]; > 100 µM (inactive) in assay [18]; > 100 µM (inactive) in [2]; > 100 µM (inactive) in assay [5]; > 100 µM (inactive) in assay [7]; > 100 µM (inactive) in assay [8]. For the same compound, the GI50 was > 100 µM (inactive) in assay [9]; > 100 µM (inactive) in assay [10]; > 100 µM (inactive) in assay [11]; 18.8 µM (inactive) in [12]; > 100 µM (inactive) in [13]; > 100 µM (inactive) in assay [14]. Further, the GI50 in assay [15], in assay [16] and in [17] was > 100 µM (inactive) throughout.
Regarding `CCOC(=O)/C(=C\NC[C@@H](C)O)c1nc2ccccc2[nH]1`, the GI50 is > 100 µM (inactive) in assay [1]; 55 µM (inactive) in assay [18]; 69.5 µM (inactive) in assay [2]; 37.4 µM (inactive) in assay [3]; 73.3 µM in assay [4]; > 100 µM (inactive) in assay [5]. Moreover, the GI50 in assay [6] was > 100 µM (inactive); in assay [7] it was 33.3 µM (inactive); in assay [8], 40.3 µM (inactive); in assay [9], 98.4 µM (inactive); in assay [10], > 100 µM (inactive); in assay [11] it was 64 µM (inactive). In addition, the GI50 in [12] is 29.5 µM (inactive); in [13], 93.1 µM (inactive); in assay [14], > 100 µM (inactive); in assay [16], 56 µM (inactive); in [17], 0.33 µM (active).
In the case of `Cc1nnc2c3c(-c4ccccc4)c(-c4ccccc4)oc3nc(N(C)C)n12`, the GI50 was 90.4 µM (inactive) in assay [1]; 65.2 µM (inactive) in assay [18]; 64.4 µM (inactive) in [2]; 29.4 µM (inactive) in [3]; 23.7 µM in assay [4]; 97.9 µM (inactive) in assay [8]. The GI50 in assay [10] is 51.5 µM (inactive); in [11] it was 78.9 µM (inactive); in assay [12] it was 35.2 µM (inactive); in assay [14], 15.5 µM (inactive); in assay [19] it was 83.6 µM (inactive); in [15], 51.2 µM (inactive). Further, the results for the GI50 in [16] and in assay [17] were 36.1 µM (inactive) and 21.4 µM (inactive), respectively.
Consider `COc1ccc([C@@H]2C[C@@H]3C(=O)OC(=O)[C@@H]3c3c2c2ccccc2n3C)cc1`, for which the GI50 in [1], in assay [18], in [2], in [3], in assay [5] and in assay [8] was > 100 µM (inactive) throughout. Further, the GI50 in [9], in assay [11], in assay [13], in assay [14], in assay [16] and in assay [17] was > 100 µM (inactive) throughout.
For the compound `CCOC(=O)CSC1NC(C(=O)OC)CC1OC` (configuration not stated), the GI50 is > 100 µM (inactive) in [1]; > 100 µM (inactive) in assay [18]; > 100 µM (inactive) in assay [2]; > 100 µM (inactive) in assay [3]; greater than 100 µM in [4]; > 100 µM (inactive) in [5]. In addition, the GI50 in assay [6] was > 100 µM (inactive); in assay [7] it was 67.6 µM (inactive); in [8], > 100 µM (inactive); in assay [9], > 100 µM (inactive); in [10] it was > 100 µM (inactive); in assay [11], > 100 µM (inactive). Besides, the GI50 in [12], in assay [14], in [15], in assay [16] and in [17] was > 100 µM (inactive) each time.
`CCCCCCCCCCCCCC/C(C(=O)OC)=C(/O)C(=O)OCC`: the GI50 is 19.7 µM (inactive) in assay [1]; 33.2 µM (inactive) in [18]; 90.8 µM (inactive) in assay [2]; 19.9 µM (inactive) in assay [3]; 19.7 µM in assay [4]; 61.2 µM (inactive) in assay [5]. For the same compound, the GI50 in assay [7] was 37.8 µM (inactive); in assay [8] it was 43.3 µM (inactive); in [9], > 100 µM (inactive); in [10], 27 µM (inactive); in assay [11] it was 44.8 µM (inactive); in assay [12], > 100 µM (inactive). Moreover, the GI50 in [13] is > 100 µM (inactive); in [14], 33 µM (inactive); in assay [15] it was 26.3 µM (inactive); in assay [16] it was 63.5 µM (inactive); in assay [17] it was 23.6 µM (inactive).
